Measurements as given in US9422263B2, “Fluoro-substituted 3,5-dicyano-4-(1H-indazol-5-yl)-2,6-dimethyl-1,4-dihydropyridine derivatives and methods of use thereof” (BAYER PHARMA AKTIENGESELLSCHAFT, priority 2009, dated 2016).
pIC50: −log10 of the molar value.

Legend:
[1] = target: Recombinant human c-Met protein (Homo sapiens (Human), UniProt P08581); assay: c-Met receptor tyrosine kinase activity assay (NADH read-out); assay type: biochemical; details: ATP 30 μM, c-Met 30 nM
Procedure: c-Met Receptor Tyrosine Kinase Activity Assay (NADH Read-Out):
Recombinant human c-Met protein (Invitrogen, Carlsbad, Calif., USA) is used. As substrate for the kinase reaction the peptide KKKSPGEYVNIEFG (JPT, Germany) is used. For the assay, 1 μL of a 51-fold concentrated solution of the test compound in DMSO is pipetted into a white 384-well microtiter plate (Greiner Bio-One, Frickenhausen, Germany). 25 μL of a solution of c-Met (final concentration 30 nM) and pyruvate kinase/lactate dehydrogenase (Roche Diagnostics, Mannheim, Germany; final concentration 8 mg/L) in assay buffer [3-(N-morpholino)propanesulfonic acid (MOPS), 50 mM, pH 7; MgCl2, 10 mM; bovine serum albumin (BSA), 0.01%; Triton X 100, 0.01%; DTT, 2 mM] are added, and the mixture is incubated for 5 min at room temperature. Then, the kinase reaction is started by the addition of 25 μL of a solution of adenosine triphosphate (ATP, final concentration 30 μM), substrate (final concentration 100 μM), nicotinamide adenine dinucleo-tide (NADH, final concentration 50 μM) and dithiothreitol (DTT, final concentration 2 mM) in assay buffer, and the resulting mixture is incubated for a reaction time of 100 min at 32° C.
Subsequently, the amount of phosphorylated substrate is evaluated by measurement of the decrease of NADH fluorescence. Therefore, the fluorescence emissions at 465 nm after excitation at 340 nm is measured in a fluorescence reader, e.g. Tecan Ultra (Tecan, Männedorf, Switzerland). The data are normalised (enzyme reaction without inhibitor=0% inhibition; all other assay components but no enzyme=100% inhibition).

[2] = target: recombinant kinase domain of the human c-Met (amino acids 960-1390) (Homo sapiens (Human), UniProt P08581); assay: c-Met receptor tyrosine kinase homogeneous time-resolved fluorescence assay (alternative format); assay type: biochemical; details: HTRF format; ATP 10 μM
Sequence of recombinant kinase domain of the human c-Met (amino acids 960-1390) (P08581 960-1390): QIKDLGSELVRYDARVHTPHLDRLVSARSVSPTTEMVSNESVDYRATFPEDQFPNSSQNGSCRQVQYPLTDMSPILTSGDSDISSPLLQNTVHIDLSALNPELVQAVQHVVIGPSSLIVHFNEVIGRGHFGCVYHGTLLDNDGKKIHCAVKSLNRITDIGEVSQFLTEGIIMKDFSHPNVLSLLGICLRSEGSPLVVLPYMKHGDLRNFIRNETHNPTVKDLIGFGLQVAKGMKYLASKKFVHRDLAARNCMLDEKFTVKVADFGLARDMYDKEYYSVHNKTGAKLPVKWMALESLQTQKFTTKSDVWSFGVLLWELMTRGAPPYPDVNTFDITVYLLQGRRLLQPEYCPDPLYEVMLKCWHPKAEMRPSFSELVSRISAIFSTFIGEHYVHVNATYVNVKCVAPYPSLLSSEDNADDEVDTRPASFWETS
Excerpt: c-Met Receptor Tyrosine Kinase Homogeneous Time-Resolved Fluorescence Assay (Alternative Format):
The N-terminally His6-tagged recombinant kinase domain of the human c-Met (amino acids 960-1390), expressed in insect cells (SF21) and purified by Ni-NTA affinity chromatography and consecutive size exclusion chromatography (Superdex 200), is used. Alternatively, commercially available c-Met (Millipore) can be used. As substrate for the kinase reaction, the biotinylated poly-Glu, Tyr (4:1) copolymer (#61GTOBLC, Cis Biointernational, Marcoule, France) is used.
For the assay, […] of a 100-fold concentrated solution of the test compound in DMSO is pipetted into a black low-volume 384-well microtiter plate (Greiner Bio-One, Frickenhausen, Germany). 2 μL of a solution of c-Met in assay buffer [25 mM Hepes/NaOH, pH 7.5; 5 mM MgCl2; 5 mM MnCl2; 2 mM dithiothreitol; 0.1% (v/v) Tween 20 (Sigma); 0.1% (w/v) bovine serum albumin] are added, and the mixture is incubated for 15 min at 22° C. to allow pre-binding of the test compound to the enzyme before the start of the kinase reaction. Then, the kinase reaction is started by the addition of 3 μL of a solution of adenosine triphosphate (ATP, 16.7 μM; final concentration in the 5 μL assay volume is 10 μM) and substrate (2.27 μg/mL, final concentration in the 5 μL assay volume is 1.36 μg/mL ˜30 nM) in assay buffer, and the resulting mixture is incubated for a reaction time of 30 min at 22° C. The concentration of c-Met in the assay is adjusted depending on the activity of the enzyme lot and is appropriately chosen to have the assay in the linear range; typical enzyme concentrations are in the range of about 0.03 nM (final concentration in the 5 μL assay volume). The reaction is stopped by the addition of 5 μL of a solution of HTRF detection reagents [40 nM streptavidine-X Lent and 2.4 nM PT66-Eu-chelate, an europium-chelate labelled anti-phosphotyrosine antibody (Perkin-Elmer)] in an aqueous EDTA solution [100 mM EDTA, 0.2% (w/v) bovine serum albumin in 50 mM HEPES/NaOH, pH 7.5].
The resulting mixture is incubated for 1 h at 22° C. to allow the binding of the biotinylated phosphorylated peptide to the streptavidine-XLent and the PT66-Eu-chelate. Subsequently, the amount of phosphorylated substrate is evaluated by measurement of the resonance energy transfer from the PT66-Eu-chelate to the streptavidine-XLent. Therefore, the fluorescence emissions at 620 nm and 665 nm after excitation at 350 nm are measured in an HTRF reader, e.g. Rubystar (BMG Lab-technologies, Offenburg, Germany) or Viewlux (Perkin-Elmer). The ratio of the emissions at 665 nm and at […] is taken as the measure for the amount of phosphorylated substrate. The data are normalised (enzyme reaction without inhibitor=0% inhibition; all other assay components but no enzyme=100% inhibition).

[3] = Caco-2 permeability assay; assay type: in vitro ADME; details: human, apical to basolateral, 2 h at 37° C., Table 4, read-out: Caco-2 permeability PappA-B
Excerpt: Caco-2 Permeability Assay:
The in vitro permeation of a test compound across a Caco-2 cell monolayer is a well-established assay system to predict the permeability from the gastro-intestinal tract [cf. P. Artursson and J. Karlsson: Correlation between oral drug absorption in humans and apparent drug permeability coefficients in human intestinal epithelial (Caco-2) cells, Biochem. Biophys. 175 (3), 880-885 (1991)]. The permeability of the compounds of the present invention in such Caco-2 cells was determined as described below:
Human caco-2 cells (ACC No. 169, DSMZ, German Collection of Microorganisms and Cell Cultures, Braunschweig, Germany) are seeded on 24-well insert plates and are allowed to grow for 14-16 days. For permeability studies, the test compounds are dissolved in DMSO and diluted to the final test concentration of 2 μM with transport buffer [Hanks' Buffered Salt Solution, Gibco/Invitrogen, further supplemented with glucose (final concentration 19.9 mM) and HEPES (final concentration 9.8 mM)]. For determination of the apical to basolateral permeability (PappA-B), the test compound solution is added to the apical side of the cell monolayer and transport buffer to the basolateral side of the monolayer; for determination of the basolateral to apical permeability (PappB-A), the test compound solution is added to the basolateral side of the cell monolayer and transport buffer to the apical side of the monolayer. Samples are taken from the donor compartment at the beginning of the experiment to confirm mass balance. After an incubation of 2 h at 37° C., samples are taken from both compartments. Samples are analyzed by LC-MS/MS, and the apparent permeability coefficients are calculated. Lucifer Yellow permeability is assayed for each cell monolayer to ensure cell monolayer integrity, and the permeability of Atenolol (low permeability marker) and Sulfasalazine (marker for active excretion) is determined for each batch as quality control.

Sequence of Recombinant human c-Met protein (P08581 25-1390): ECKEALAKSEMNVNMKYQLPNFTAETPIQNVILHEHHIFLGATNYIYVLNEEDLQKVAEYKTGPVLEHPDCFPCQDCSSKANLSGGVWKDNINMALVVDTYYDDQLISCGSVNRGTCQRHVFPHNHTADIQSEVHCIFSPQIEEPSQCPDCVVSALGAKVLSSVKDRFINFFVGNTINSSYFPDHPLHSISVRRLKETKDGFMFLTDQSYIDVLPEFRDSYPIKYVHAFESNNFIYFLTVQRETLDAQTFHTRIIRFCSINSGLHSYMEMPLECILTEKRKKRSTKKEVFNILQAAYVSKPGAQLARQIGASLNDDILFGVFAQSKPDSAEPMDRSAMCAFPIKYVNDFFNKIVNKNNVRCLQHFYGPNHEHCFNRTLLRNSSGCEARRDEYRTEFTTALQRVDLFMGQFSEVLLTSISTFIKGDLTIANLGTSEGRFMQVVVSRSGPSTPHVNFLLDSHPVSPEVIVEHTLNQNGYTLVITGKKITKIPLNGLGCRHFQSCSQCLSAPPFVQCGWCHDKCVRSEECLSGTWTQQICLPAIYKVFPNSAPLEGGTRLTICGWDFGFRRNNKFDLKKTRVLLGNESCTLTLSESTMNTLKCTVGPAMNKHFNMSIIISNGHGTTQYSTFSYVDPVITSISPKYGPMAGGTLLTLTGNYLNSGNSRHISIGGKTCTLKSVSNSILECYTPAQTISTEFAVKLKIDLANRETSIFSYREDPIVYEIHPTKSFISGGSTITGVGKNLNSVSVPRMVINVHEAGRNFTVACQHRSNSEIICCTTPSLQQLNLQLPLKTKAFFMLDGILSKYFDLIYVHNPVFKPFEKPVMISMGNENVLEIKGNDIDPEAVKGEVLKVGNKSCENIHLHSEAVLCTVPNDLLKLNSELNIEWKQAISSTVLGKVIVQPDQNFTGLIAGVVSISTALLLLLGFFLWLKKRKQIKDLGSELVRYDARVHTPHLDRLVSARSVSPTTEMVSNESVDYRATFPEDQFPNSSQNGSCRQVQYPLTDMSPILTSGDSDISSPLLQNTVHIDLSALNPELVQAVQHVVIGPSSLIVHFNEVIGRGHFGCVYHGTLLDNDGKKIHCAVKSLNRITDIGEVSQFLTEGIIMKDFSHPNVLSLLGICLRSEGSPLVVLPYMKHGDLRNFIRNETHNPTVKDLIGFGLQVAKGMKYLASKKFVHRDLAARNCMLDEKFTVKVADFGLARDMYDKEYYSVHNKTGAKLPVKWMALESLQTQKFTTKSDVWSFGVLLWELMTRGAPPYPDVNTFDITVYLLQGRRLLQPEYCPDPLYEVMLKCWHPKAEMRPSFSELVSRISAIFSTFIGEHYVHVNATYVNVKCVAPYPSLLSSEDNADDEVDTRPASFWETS

Compound `CCC(F)(F)C1=C(C#N)C(c2ccc3[nH]nc(C)c3c2)C(C#N)=C(C)N1` (racemic) [Example 30, rac-2-(1,1-Difluoropropyl)-6-methyl-4-(3-methyl-1H-indazol-5-yl)-1,4-dihydropyridine-3,5-dicarbonitrile] has a pIC50 [1] of 7.68, a pIC50 [2] of 8.52 and a Papp at 2 h, 2 μM [3] of 22 ×10⁻⁶ cm/s.
Work on `CC1=C(C#N)C(c2ccc3[nH]nc(C)c3c2)C(C#N)=C(C(F)F)N1` (single isomer, unassigned) [Example 2, 2-(Difluoromethyl)-6-methyl-4-(3-methyl-1H-indazol-5-yl)-1,4-dihydropyridine-3,5-dicarbonitrile] yielded a pIC50 [1] of 8.22 and a pIC50 [2] of 8.70.
